# Measurements as given in patent publication US20190216891A1, “METHOD FOR MODULATING MYELINATION” (Yeda Research and Development Co., Ltd., priority 2016, published 2019).
# “Also recorded” adds a separate entry of the source.
# What was measured:
# Assay type in all cases: cell-based, mouse
# wild type OPC cultures = assay: Oligodendrocyte differentiation in wild type OPC cultures (PLP and O4 immunolabeling); settings: wild type OPC cultures grown four days with 1mM IBMX
# Description: A. Immunolabeling of wild type OPC cultures grown for four days in the absence (Control) or presence of 1mM 3-isobutyl-1-methylxanthine (IBMX) using antibodies to PLP and O4. Dapi was used to label the nuclei. Scale bar, 50 μm. B. Percentage of PLP-positive oligodendrocytes among the total O4-positive cells (**P<0.01, t-test, n=3 cultures). Bars represent mean±SEM.
# Immunofluorescence and Immunoblotting For immunohistochemistry, mice were anesthetized and perfused with 2% PFA/PBS. Brains and optic nerves were isolated and post fixed on ice for 15 min, followed by 30% sucrose/ PBS at 4° C. overnight. Tissues were embedded in OCT and sectioned. Sections were permeabilized in methanol at −20° C. for 5 min. Immunostaining of GPR37 was carried out using 2%PFA-perfused mouse brain sections that were permeabilized with cold acetone and blocked with 5% fish gelatin and 0.5% Triton-X100 at RT for 1 hr. For immunocytochemistry, cells were fixed with 4% PFA/ PBS for 15min at room temperature. For O4 staining, live cells were incubated with medium containing the O4 antibody at 37° C. for 45min before fixation. […] Western blot analysis was done using OPC cultures lysed in loading buffer and chemiluminescence was detected using the ChemiDoc MP System (Bio-Rad). […]
# [1] = test system: nuclear translocation of ERK1/2; assay: Nuclear localization of pERK in cultured OPCs (immunolabeling pERK, PLP, Dapi); settings: Gpr37−/− OPCs (DIV7)
# Description: (§1) FIGS. 11A-B illustrate that EPE blocks the nuclear translocation of pERK in Gpr37 null oligodendrocytes. A. Cultured OPCs isolated from WT and Gpr37^−/− mice were grown for 3 days (DIV2-DIVS) in the presence or absence (control) of EPE, followed by immunolabeling with antibodies to pERK and PLP. The nuclei were labeled with Dapi. PLP and pERK immunoreactivity are shown in separate images along with the Dapi signal. Higher magnification of the nucleus is shown in the insets in each panel. […] Scale bar, 50 μm. […] Cultures were grown in the absence (DME), or presence of EPE, PLX4032, or DMSO as control for 6 days, and then fixed at DIV7 and labeled with antibodies to Olig2. The number of positive cells per field of view is shown in the graph. Bars represent mean±SEM (n=3 different cultures per each genotype; 10 fields of view were analyzed for each culture).
# FIGS. 12A-D illustrate the involvement of cAMP in Gpr37 signaling in oligodendrocytes. A-B. Absence of Gpr37 results in increased levels of cAMP in mice brain (A) and cultured OPCs (B). Intracellular cAMP was extracted from P70 mice brains (*P<0.05, t-test; n=6 WT and n=7 KO mice), or from DIV5 cultured OPCs (*P<0.01, t-test; n=3 different OPC primary cultures of each genotype) and detected by ELISA. C. Adenylate cyclase inhibition prevents the nuclear translocation of pERK in Gpr37^−/− OPCs. Cultured wild type (WT) and Gpr37^−/− OPCs (DIV7) were left untreated (control) or treated with the adenylyl cyclase inhibitor SQ22536 (0.1 mM) for 2 hours in their growth medium. Cells were then fixed and labeled with Dapi to mark their nuclei, and with antibodies to PLP and pERK. […] Bars show mean±SEM (*P<0.01, t-test; n=3 different primary cultures for each genotype; 50 PLP-positive cells were counted per each culture).
# FIGS. 13A-B illustrate that inhibition of Epac activity attenuates nuclear translocation of ERK1/2 in oligodendrocytes lacking GPR37. […] Bars show mean±SEM (*P<0.05, **P<0.01, t-test; n=3 different primary cultures for each genotype; 100 PLP-positive cells were counted per each culture). […]
# [2] = test system: oligodendrocytes co-cultured with DRG neurons; assay: OPC/DRG neuron co-cultures: PLP-positive oligodendrocytes associated with axonal Caspr clustering
# Excerpt: FIGS. 5A-H illustrate that Gpr37-dependent inhibition of oligodendrocyte differentiation is mediated by ERK phosphorylation and nuclear translocation. A. Immunolabeling of sagittal brain sections of P12 brain stems from wild type (WT) and KO (Gpr37^−/−) mice using antibodies to phosphorylated ERK (pERK) and Olig2. B. The number of pERK and Olig2 positive cells in Gpr37^−/− compared to WT brainstem (*P<0.05, n=5 images from two mice per genotype). C. Western blot analysis of purified OPC cultures at DIV7 (three cultures per each genotype are shown). Blots were incubated with antibodies to pERK or general ERK (ERK) as indicated. D. Relative value of pERK intensity normalized by general ERK (p=0.02, n=7 cultures each genotype). E. pERK is present in the nucleus of oligodendrocytes lacking Gpr37. […] (* p<0.05, n=3 different primary cultures for each genotype; 100 PLP-positive oligodendrocytes were counted per each culture). […] H. Quantitation of the results showing the fold change in the percent of PLP-positive cells that associate with axonal Caspr immunoreactivity in all samples compare to the non-treated wild type cultures. […]
# Immunofluorescence and Immunoblotting For immunohistochemistry, mice were anesthetized and perfused with 2% PFA/PBS. […] Western blot analysis was done using OPC cultures lysed in loading buffer and chemiluminescence was detected using the ChemiDoc MP System (Bio-Rad). […]
# [3] = test system: oligodendrocytes co-cultured with DRG neurons; assay: Number of Olig2 cells in oligodendrocyte/DRG neuron co-cultures; settings: both genotypes (WT and Gpr37−/−); 6 days treatment, fixed at DIV7
# Description: as §1
# Immunofluorescence and Immunoblotting For immunohistochemistry, mice were anesthetized and perfused with 2% PFA/PBS. Brains and optic nerves were isolated and post fixed on ice for 15 min, followed by 30% sucrose/ PBS at 4° C. overnight. Tissues were embedded in OCT and sectioned. Sections were permeabilized in methanol at −20° C. for 5 min. […] Western blot analysis was done using OPC cultures lysed in loading buffer and chemiluminescence was detected using the ChemiDoc MP System (Bio-Rad). […]
smiles,measurement,setting,value
"CC(C)Cn1c(=O)n(C)c(=O)c2[nH]cnc21 [IBMX, 3-isobutyl-1-methylxanthine]",oligodendrocyte differentiation (percentage of PLP-positive oligodendrocytes among total O4-positive cells),wild type OPC cultures,enhances the differentiation; also recorded: enhances oligodendrocyte differentiation
CC(C)(C)c1cc(C(=O)/C(C#N)=N/Nc2cccc(Cl)c2)no1 [ESI-09],number of oligodendrocytes displaying nuclear localization of pERK (ERK1/2),"[1]; ESI-09 1 μM for 2 hours, vs DMSO",significant decrease; also recorded: reduced to equivalent level of wild type cells
Nc1ncnc2c1ncn2C1CCCO1 (stereo not shown) [SQ 22536],number of oligodendrocytes displaying nuclear localization of pERK (ERK1/2),[1]; SQ22536 0.1 mM for 2 hours,significant decrease
same,number of oligodendrocytes displaying nuclear localization of pERK (ERK1/2),"[1]; SQ22536 0.1 mM for 2 hours, listed as SQ22536",reduced to equivalent levels of wild type cells
CCCS(=O)(=O)Nc1ccc(F)c(C(=O)c2c[nH]c3ncc(-c4ccc(Cl)cc4)cc23)c1F [PLX4032],number of PLP-positive oligodendrocytes associated with intense axonal clustering of Caspr,"[2]; Gpr37−/− oligodendrocytes with wild type DRG neurons, 6 days in 10 μM EPE or 1 μM PLX4032, vs DMSO control",completely abolished; also recorded: significantly low number
same,PLP-positive oligodendrocytes associated with axonal clustering of Caspr,"[2]; wild type cultures, 6 days in 10 μM EPE or 1 μM PLX4032",no effect
same,number of Olig2 cells (per field of view),[3],do not affect
